How the values were obtained:
proximal jejunum = assay: In situ jejunal perfusion, OCT absorption into portal vein blood; assay type: in vivo, rat; conditions: for AUC, % of the correspondent control group (Group A1): PH rats; for AUC, % of the correspondent control group (Group A1) / AUC, % of the correspondent control (Group A; OCT only): portal vein blood 5-60 min; for AUC, % of the correspondent control (Group A; OCT only): healthy rats
Protocol: The experimental procedure was performed as previously reported. Briefly, the mean length of the proximal jejunum (approximately 2 cm distal to the ligament of Treitz) was 10 ± 1 cm. An oxygenated Krebs–Ringer bicarbonate buffer (KRB) solution (pH 7.4) containing 0.5 mM MgCl2, 4.5 mM KCl, 120 mM NaCl, 0.7 mM Na2HPO4, 1.5 mM NaH2PO4, 1.2 mM CaCl2, 15 mM NaHCO3, and 10 mM glucose was perfused at a flow rate of 0.4 mL/min using a peristaltic pump through an inlet tube kept at 37 °C. […] The AUC was calculated using the integral method. These experiments were performed both in healthy and PH rats; the latter was called Group A1, B1, C1, and D1 (n = 4 per group).
(§1) Frozen samples were thawed at room temperature prior to their preparation. A 200-µL aliquot of cell lysate containing 1 mL Tris, 99 mL D-Hank’s, and 200 µL methyl cyanide was mixed with the sample obtained from Caco-2 experiments. The mixture was then vortexed for 1 min and centrifuged at 12,000×g for 10 min. The supernatant was transferred to a clean glass tube and evaporated to dryness at 40 °C under nitrogen. A 10-μL aliquot was injected for LC − MS/MS analysis. A total of 200 μL methanol was added to a 50-μL sample of plasma, and the mixture was vortexed and centrifuged as described above to remove precipitated proteins. A total of 200 μL supernatant was transferred and evaporated as described for the Caco-2 samples. The residue was then diluted with 100 μL mobile phase and an aliquot of 10 μL was used for LC − MS/MS analysis.
(§2) Isocratic chromatographic separation was performed using a Hypersil BDS-C18 column (150 mm × 4.6 mm i.d., 5 µm; Dalian Elite Analytical Instruments Co. Ltd., China) maintained at room temperature. A mixture of 40% methanol-60% water with 0.1% formic acid (60:40, v/v) was used as the mobile phase at a flow rate of 0.5 mL/min. An API 3200 triple-quadrupole mass spectrometer (Applied Biosystems, Concord, Ontario, Canada) was operated with a Turbo Ionspray interface in positive ion mode. The ion spray voltage was set to + […], heater gas temperature to 500 °C, nebulizer gas (Gas 1) at 40 psi, heater gas (Gas 2) at 40 psi, curtain gas at 10 psi, and collision gas at 16 psi.

jejunum everted sac = assay: In vitro everted intestinal sac preparation, OCT uptake; assay type: in vitro ADME, rat; conditions: for AUC, % of the correspondent control group (Group A1): PH rats; for AUC, % of the correspondent control group (Group A1) / AUC, % of the correspondent control group (Group A): sac lumen 10-120 min; for AUC, % of the correspondent control group (Group A): healthy rats
Protocol: Rat jejunum (10 ± 1 cm) was transected approximately 2 cm distal to the ligament of Treitz. […] The AUC was calculated using the trapezoid method. These experiments were performed in both control and PH rats; the latter was called Group A1, B1, C1, and D1 (n = 4 per group).
as §2

[1] = Bi-directional Caco-2 permeability (transport) assay; assay type: in vitro ADME, human
Protocol: (§3) Caco-2 cells (purchased from the Type Culture Collection of the Chinese Academy of Sciences, Shanghai, China) at passage 30 to 33 were used in this study. Cells were routinely cultured as previously described with minor modifications. Cells were seeded onto Transwell inserts in 12-well dishes at a density of 5 × 10^5 cells/well (#3401; 0.4 µm pore size, growth area of 1.13 cm^2, Corning, NY, USA), and the medium was replaced with D-Hanks solution every other day except for the treatment days.
Cell monolayer integrity was evaluated through the transepithelial electrical resistance (TEER) using a Millicell ERS resistance system (Millipore, Bedford, MA, USA) at 37 °C. Each TEER value was corrected for background resistance determined on an extracellular matrix-coated cell culture insert without cells.
Caco-2 transport study was performed as previously described. […] A to B assay was performed to determine the extent of OCT absorption, while B to A assay was performed to measure OCT secretion. As regard A to B assay, the apical (upper) chamber was filled with 1.6 mL test drug solution in HBSS, while the receiver basolateral (lower) compartment was filled with 0.6 mL HBSS alone. Conversely, in B to A assay the upper and lower chambers were filled with 0.6 mL HBSS and 1.6 mL test drug, respectively. […] The TEER value was determined at different incubation times to verify the integrity of the monolayer after buffer change. […] The permeability direction rate (PDR) was calculated by the ratio of Papp in the B to A direction versus that in the A to B direction, as follows: PDR=Papp(BtoA)/Papp(AtoB)
as §1, §2

Caco-2 cells = assay type: cell-based, human; conditions: OCT concentrations of 1, 10, and 50 µM; data not shown
Protocol: as §3

CYP3A = assay: OCT metabolism by CYP3A in rat intestinal microsomes; assay type: in vitro ADME
Protocol: Microsomes from the small intestine of healthy rats and PH rats were obtained as previously described, and their protein concentration (0.53 ± 0.05 mg/mL and 0.52 ± 0.06 mg/mL total protein, respectively) was measured using the BCA method (Beijing Solarbio Science & Technology Co., Ltd). […] CYP3A activity was measured using a fluorescent quantitative detection kit (Genmed Scientifics Inc., U.S.A.) with the NADPH regenerating system after pre-incubation at 37 °C for 0, 2, 10, 20 or 30 min. […] The organic phase was evaporated to dryness and the OCT content in the residue was measured by LC–MS/MS.
Each sample was tested 3 times.
as §2

recombinant human CYP3A4 [2] = target: T1, recombinant human CYP3A4 (Homo sapiens, UniProt P08684); assay: OCT metabolism by recombinant human cytochrome P450 3A4; assay type: in vitro ADME; conditions: 10 min incubation, CYP3A4 2.5 mg/mL, NADPH; many different metabolites by LC–MS/MS
T1 construct: purchased BD Gentest (Supersomes)
Protocol: All incubations were performed at 37 °C in a water bath. Recombinant human cDNA-expressing P450 isozyme 3A4 (BD Gentest Supersomes) was carefully thawed on ice prior to each experiment. […] […] Control samples without NADPH and samples without OCT were also included. […] Each sample was tested 4 times.
as §2

recombinant human CYP3A4 [3] = target: T1, recombinant human CYP3A4; assay: CYP3A4 activity with and without OCT incubation (fluorescent quantitative detection kit); assay type: biochemical; conditions: OCT 400 mM
Protocol: All incubations were performed at 37 °C in a water bath. Recombinant human cDNA-expressing P450 isozyme 3A4 (BD Gentest Supersomes) was carefully thawed on ice prior to each experiment. […] After a 5-min pre-incubation at 37 °C, the reaction was started by the addition of NADPH and ended 30 min later by the addition of 500 µL methanol. Control samples without NADPH and samples without OCT were also included. […] Each sample was tested 4 times.

[4] = 10 µM OCT alone, PH rats versus healthy rats
[5] = 10 µM OCT plus 1 mM probenecid (Group C1)
[6] = 10 µM OCT plus 1 mM verapamil hydrochloride (Group B1)
[7] = 10 µM OCT plus 1 mM verapamil hydrochloride plus 1 mM probenecid (Group D1)
[8] = 10 µM OCT plus 1 mM probenecid (Group C)
[9] = 10 µM OCT plus 1 mM verapamil hydrochloride (Group B)
[10] = 10 µM OCT plus 1 mM verapamil hydrochloride plus 1 mM probenecid (Group D)
[11] = Caco-2, OCT 1 μM, Control (no inhibitor)
[12] = Caco-2, OCT 1 μM, MRP2 and P-gp inhibition
[13] = Caco-2, OCT 1 μM, MRP2 inhibition (probenecid 1 mM)
[14] = Caco-2, OCT 1 μM, P-gp inhibition (rhodamine 123 1 mM)
[15] = Caco-2, OCT 10 μM, Control (no inhibitor)
[16] = Caco-2, OCT 10 μM, MRP2 and P-gp inhibition
[17] = Caco-2, OCT 10 μM, MRP2 inhibition (probenecid 1 mM)
[18] = Caco-2, OCT 10 μM, P-gp inhibition (rhodamine 123 1 mM)
[19] = Caco-2, OCT 50 μM, Control (no inhibitor)
[20] = Caco-2, OCT 50 μM, MRP2 and P-gp inhibition
[21] = Caco-2, OCT 50 μM, MRP2 inhibition (probenecid 1 mM)
[22] = Caco-2, OCT 50 μM, P-gp inhibition (rhodamine 123 1 mM)

T1 sequence (P08684 whole entry): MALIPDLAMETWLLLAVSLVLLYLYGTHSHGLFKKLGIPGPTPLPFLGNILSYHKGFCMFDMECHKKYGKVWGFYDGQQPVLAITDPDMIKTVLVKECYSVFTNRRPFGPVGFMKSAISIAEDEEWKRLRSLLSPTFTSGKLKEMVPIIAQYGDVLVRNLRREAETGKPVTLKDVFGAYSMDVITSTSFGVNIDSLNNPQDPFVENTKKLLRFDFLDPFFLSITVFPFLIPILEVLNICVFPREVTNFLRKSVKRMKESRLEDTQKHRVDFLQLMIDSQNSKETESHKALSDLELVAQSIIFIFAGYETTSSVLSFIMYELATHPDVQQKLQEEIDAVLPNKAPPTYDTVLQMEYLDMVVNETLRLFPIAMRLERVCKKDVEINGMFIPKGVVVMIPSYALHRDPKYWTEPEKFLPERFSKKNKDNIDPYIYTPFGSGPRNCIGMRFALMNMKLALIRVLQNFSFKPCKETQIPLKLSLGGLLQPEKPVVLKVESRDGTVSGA

C[C@@H](O)[C@@H]1NC(=O)[C@H](CCCCN)NC(=O)[C@@H](Cc2c[nH]c3ccccc23)NC(=O)[C@H](Cc2ccccc2)NC(=O)[C@@H](NC(=O)[C@H](N)Cc2ccccc2)CSSC[C@@H](C(=O)N[C@H](CO)[C@@H](C)O)NC1=O [OCT, octreotide]
AUC of group A1 as % of group A (proximal jejunum; [4]): 96%
AUC, % of the correspondent control group (Group A1) (proximal jejunum; [5]): 236.28%
AUC, % of the correspondent control group (Group A1) (proximal jejunum; [6]): 384.61%
AUC, % of the correspondent control group (Group A1) (proximal jejunum; [7]): 461.78%
AUC, % of the correspondent control (Group A; OCT only) (proximal jejunum; [8]): 418.95%
AUC, % of the correspondent control (Group A; OCT only) (proximal jejunum; [9]): 521.08%
AUC, % of the correspondent control (Group A; OCT only) (proximal jejunum; [10]): 618.40%
AUC of group A1 as % of group A (jejunum everted sac; [4]): 21.54%
AUC, % of the correspondent control group (Group A1) (jejunum everted sac; [5]): 128.23%
AUC, % of the correspondent control group (Group A1) (jejunum everted sac; [6]): 151.82%
AUC, % of the correspondent control group (Group A1) (jejunum everted sac; [7]): 165.33%
AUC, % of the correspondent control group (Group A) (jejunum everted sac; [8]): 151.39%
AUC, % of the correspondent control group (Group A) (jejunum everted sac; [9]): 176.22%
AUC, % of the correspondent control group (Group A) (jejunum everted sac; [10]): 220.63%
Papp A→B [1, 11]: 0.005 ± 0.001 ×10⁻⁶ cm/s
Papp B→A [1, 11]: 0.021 ± 0.003 ×10⁻⁶ cm/s
Papp A→B [1, 12]: 0.022 ± 0.002 ×10⁻⁶ cm/s
Papp B→A [1, 12]: 0.006 ± 0.001 ×10⁻⁶ cm/s
Papp A→B [1, 13]: 0.007 ± 0.001 ×10⁻⁶ cm/s
Papp B→A [1, 13]: 0.006 ± 0.001 ×10⁻⁶ cm/s
Papp A→B [1, 14]: 0.01 ± 0.001 ×10⁻⁶ cm/s
Papp B→A [1, 14]: 0.012 ± 0.002 ×10⁻⁶ cm/s
Papp A→B [1, 15]: 0.127 ± 0.015 ×10⁻⁶ cm/s
Papp B→A [1, 15]: 0.565 ± 0.073 ×10⁻⁶ cm/s
Papp A→B [1, 16]: 0.368 ± 0.055 ×10⁻⁶ cm/s
Papp B→A [1, 16]: 0.193 ± 0.021 ×10⁻⁶ cm/s
Papp A→B [1, 17]: 0.149 ± 0.016 ×10⁻⁶ cm/s
Papp B→A [1, 17]: 0.31 ± 0.025 ×10⁻⁶ cm/s
Papp A→B [1, 18]: 0.168 ± 0.018 ×10⁻⁶ cm/s
Papp B→A [1, 18]: 0.297 ± 0.024 ×10⁻⁶ cm/s
Papp A→B [1, 19]: 0.23 ± 0.021 ×10⁻⁶ cm/s
Papp B→A [1, 19]: 1.33 ± 0.16 ×10⁻⁶ cm/s
Papp A→B [1, 20]: 1.73 ± 0.138 ×10⁻⁶ cm/s
Papp B→A [1, 20]: 0.981 ± 0.082 ×10⁻⁶ cm/s
Papp A→B [1, 21]: 0.353 ± 0.032 ×10⁻⁶ cm/s
Papp B→A [1, 21]: 1.13 ± 0.097 ×10⁻⁶ cm/s
Papp A→B [1, 22]: 1.19 ± 0.072 ×10⁻⁶ cm/s
Papp B→A [1, 22]: 1.04 ± 0.084 ×10⁻⁶ cm/s
Caco-2 cell death (LDH-cytotoxicity assay) (Caco-2 cells): No sign of Caco-2 cell death
OCT level, PH + OCT group versus N + OCT group (CYP3A; intestinal microsomes of PH versus healthy rats, OCT 1000 ng/mL, 37 °C, p < 0.05): significantly lower
OCT level in the presence of the CYP3A inhibitor ketoconazole (CYP3A; intestinal microsomes of healthy and PH rats, OCT 1000 ng/mL, ketoconazole 10 µM, p < 0.01): significantly and equally increased
Metabolism of OCT by CYP3A (CYP3A; rat intestinal microsomes, NADPH-generating system): metabolized by CYP3A
Metabolism of OCT by recombinant human CYP3A4 (recombinant human CYP3A4 [2]): CYP3A4 metabolized OCT
Change in activity of recombinant human CYP3A4 after pre-incubation with OCT (recombinant human CYP3A4 [3]): No changes

Source: PMC7789354 (BMC Gastroenterology, 2021)
